This passage reports GI50 and IC50 results from patent US20250353831A1, “NOVEL HETEROBICYCLIC COMPOUND FOR INHIBITING YAP-TEAD INTERACTION AND PHARMACEUTICAL COMPOSITION COMPRISING SAME” (priority 2022, published 2025).

Test [1] deals with NCI-H226 cells. The experiment in a line: Cell growth inhibition test (SRB) in NCI-H226 cells. The test is classed as cell-based. The settings on record: Homo sapiens, 144 h, NCI-H226 NF2 gene-deficient mesothelioma cancer cell line, 6 days. The procedure: The ability of the synthetic compounds to inhibit the growth of NCI-H226 cells was identified. NCI-H226, which is an NF2 gene-deficient mesothelioma cancer cell line, was cultured in a RPMI 1640 medium supplemented with 10% FBS and 1% Penicillin/Streptomycin. The cultured cells were aliquoted into a 96-well plate at a density of 0.7×10^3 cells/100 μl and cultured for 24 hours, and then 100 μl of a test compound diluted to 2× concentration was mixed with each well and cultured for 6 days. SRB test method was used to measure cell growth inhibition, and a 50% inhibitory concentration (GI50) on cell growth by the compound was calculated by using GraphPad Prism 9.
A GI50value less than 100 nM was expressed as A and a GI50 value not less than 100 nM was expressed as B.

In test [2] the test system is TEAD. The experiment in a line: TEAD reporter activity inhibition test (luciferase reporter in MCF7 cell line). The settings on record: Homo sapiens; MCF7 TEAD (GTIIC) firefly luciferase reporter cell line, 24 hours, ONE-Glo luminescence; read-out: IC50 on TEAD transcription activity. It is filed as cell-based. The procedure:
The ability of the synthetic compounds to inhibit transcription of a target gene by TEAD was measured. This evaluation method was a method of measuring transcriptional activity of TEAD by measuring luminescence intensity of luciferase expressed in the case where TEAD binds to a target gene and activates transcription thereof, by using MCF7 cell line (BPS Bioscienc, Inc., USA) constructed by introducing firefly luciferase reporter gene into GTIIC (5′-ACATTCCA-3′), which is a specific binding structure of TEAD. The cell line was cultured in a MEM medium supplemented with 10% FBS, 1% Penicillin/Streptomycin, 1% non-essential amino acids, 10 μg/ml insulin, and 400 μg/ml Geneticin. In the test of inhibiting the TEAD reporter activity, Geneticin was excluded. The cells were aliquoted into a white 96-well plate at a density of 4×10^4 cells/100 μl and cultured for 6 hours. 50 μl of the test compound diluted to 3× concentration was mixed with each well. After culturing the cell line for 24 hours, signals of luciferase were measured by luminescence according to manufacturer's protocols by using ONE-Glo luciferase assay system (Promega, E6120). A 50% inhibitory concentration (IC50) on TEAD transcription activity was calculated by using GraphPad Prism 9.
An IC50 value less than 100 nM was expressed as A, an IC50 value not less than 100 nM but less than 500 nM was expressed as B, and an IC50 value not less than 500 nM was expressed as C.

Bounds are passed on as bounds.

As a reminder, the GI50 is the concentration at which growth is held to half of that of the control. Lower therefore signals more potent growth inhibition. By IC50 is commonly meant the point on the concentration scale where inhibition reaches its midpoint.

As for `C=CC(=O)Nc1ccc2c(c1)c(-c1ccccc1F)cn2-c1ccc(C(F)(F)F)cc1` [Synthetic compound 5, N-(3-(2-fluorophenyl)-1-(4-(trifluoromethyl)phenyl)-1H-indol-5-yl)acrylamide], the 50% growth inhibitory concentration (GI50) in test [1] is < 0.1 µM. Besides, the half-maximal inhibitory concentration (IC50) in test [2] was < 0.1 µM.

For the molecule `C=C(F)C(=O)Nc1ccc2c(c1)c(-c1cn(C)cn1)cn2-c1ccc(C(F)(F)F)cc1` [Synthetic compound 6, 2-fluoro-N-(3-(1-methyl-1H-imidazol-4-yl)-1-(4-(trifluoromethyl)phenyl)-1H-indol-5-yl) acrylamide], the IC50 in test [2] fell in the range of 0.1 to 0.5 µM.

Consider `C=CC(=O)Nc1ccc2c(c1)c(-c1cn(C3CC3)cn1)cn2-c1ccc(C(F)(F)F)cc1` [Synthetic compound 2, N-(3-(1-cyclopropyl-1H-imidazol-4-yl)-1-(4-(trifluoromethyl)phenyl)-1H-indol-5-yl) acrylamide], for which, in test [1], the 50% growth inhibitory concentration (GI50) is < 0.1 µM. Moreover, the IC50 in test [2] is < 0.1 µM.

For the molecule `C=CC(=O)Nc1cnc2c(c1)c(-c1cn(C3CC3)cn1)cn2-c1ccc(C(F)(F)F)cc1` [Synthetic compound 8, N-(3-(1-cyclopropyl-1H-imidazol-4-yl)-1-(4-(trifluoromethyl)phenyl)-1H-pyrrolo[2,3-b]pyridin-5-yl)acrylamide], in test [1], the GI50 is < 0.1 µM. Further, in test [2], the IC50 is < 0.1 µM.

As for `C=CC(=O)Nc1ccc2c(c1)c(-c1cn(C)cn1)cn2-c1ccc(C(F)(F)F)cc1` [Synthetic compound 9, N-(3-(1-methyl-1H-imidazol-4-yl)-1-(4-(trifluoromethyl)phenyl)-1pyrrolo[2,3-b]pyridin-5-yl)acrylamide], the GI50 in test [1] is < 0.1 µM. The IC50 in test [2] is < 0.1 µM.

As for `C=CC(=O)Nc1ccc2c(c1)c(-c1ccco1)cn2-c1ccc(C(F)(F)F)cc1` [Synthetic compound 3, N-(3-(furan-2-yl)-1-(4-(trifluoromethyl)phenyl)-1H-indol-5-yl)acrylamide], in test [1], the GI50 was < 0.1 µM. In addition, the half-inhibitory concentration (IC50) in test [2] was < 0.1 µM.

For the molecule `C=CC(=O)Nc1ccc2c(c1)c(-c1cn(C3CCC3)cn1)cn2-c1ccc(C(F)(F)F)cc1` [Synthetic compound 4, N-(3-(1-cyclobutyl-1H-imidazol-4-yl)-1-(4-(trifluoromethyl)phenyl)-1H-indol-5-yl)acrylamide], in test [1], the GI50 was < 0.1 µM. Besides, in test [2], the IC50 is < 0.1 µM.

In the case of `C=CC(=O)Nc1ccc2c(c1)c(-c1cn(CCOC)cn1)cn2-c1ccc(C(F)(F)F)cc1` [Synthetic compound 7, N-(3-(1-(2-methoxyethyl)-1H-imidazol-4-yl)-1-(4-(trifluoromethyl)phenyl)-1H-indol-5-yl)acrylamide], the GI50 in test [1] was < 0.1 µM. Moreover, the IC50 in test [2] is < 0.1 µM.

For the molecule `C=CC(=O)Nc1cc2c(-c3cn(C)cn3)cn(-c3ccc(C(F)(F)F)cc3)c2cc1Cl` [Synthetic compound 10, N-(6-chloro-3-(1-methyl-1H-imidazol-4-yl)-1-(4-(trifluoromethyl)phenyl)-1H-indol-5-yl)acrylamide], the half-maximal inhibitory concentration (IC50) in test [2] lay in the range of 0.1 to 0.5 µM.
